Results: patent publication US20240382629A1, “HETEROBIVALENT AND HOMOBIVALENT AGENTS TARGETING FIBROBLAST ACTIVATION PROTEIN ALPHA AND/OR PROSTATE-SPECIFIC MEMBRANE ANTIGEN” (The Johns Hopkins University, priority 2021, published 2024)

Tested on: U87 tumor
Experiment: PET imaging and tissue biodistribution in U87 tumor-bearing mice
Format: in vivo, mouse
Design: Biodistribution: Saliv. Gland: unit not given here
Description: Cell uptake assays, flow cytometry, and IHC were performed as described previously. Banerjee et al., 2019; Nimmagadda et al., 2018. PET imaging and biodistribution Sequential PET imaging and biodistribution studies were conducted to quantify and validate PET imaging data. Briefly, tumor-bearing mice were administrated approximately 7.4 MBq of radiotracer in 150 μL saline via tail-vein injection. They were randomized into the indicated groups of 3-4 mice before radiotracer injection.
In Experiment 1, bilateral xenografts of U87 (right flank) and PSMA+ PC3 PIP (left flank) tumors were established in male NSG mice (n=3), which underwent imaging followed by biodistribution over 24 h. […] A biodistribution study was further conducted with U87 tumors at 2 h post-injection (n=3) to compare the tissue distribution properties of ^64Cu-FP-L1 and ^64Cu-FAPI-04.

[1] = untitled table, radiolabel and time not given, in %ID/g
[2] = head-to-head, 1 h, dose 20 μCi, n=5/group (FAPI-04 n = 3)
[3] = 2 h + 10 nmol Sri-06-98, dose 200 μCi, n=3, in %ID/g
[4] = 2 h, dose 200 μCi, n=3, in %ID/g
[5] = 4 h, dose 200 μCi, n=3, in %ID/g

## N#C[C@@H]1CCCN1C(=O)CNC(=O)c1ccnc2ccc(OCCCN3CC4CN(C(=O)C(CCNC(=O)c5ccc(F)nc5)NC(=O)CN5CCN(CC(=O)O)CCN(CC(=O)O)CCN(CC(=O)O)CC5)CC4C3)cc12 (stereo partly drawn) [SRI-08-37]
Untitled table, radiolabel and time not given
  Biodistribution: Saliv. Gland: 11.70 ± 1.32
[1]
  Biodistribution: Bladder: 4.28 ± 4.14
  Biodistribution: Blood: 4.59 ± 0.50
  Biodistribution: Bone: 6.37 ± 0.98
  Biodistribution: Fat: 1.04 ± 0.55
  Biodistribution: Heart: 2.24 ± 1.02
  Biodistribution: Kidney: 2.82 ± 0.06
  Biodistribution: Lacrim Gland: 9.11 ± 2.71
  Biodistribution: Liver: 2.02 ± 0.13
  Biodistribution: Lung: 2.96 ± 0.38
  Biodistribution: Muscle: 2.74 ± 0.18
  Biodistribution: Pancreas: 6.76 ± 1.47
  Biodistribution: Sm Intest: 3.36 ± 0.76
  Biodistribution: Spleen: 1.45 ± 0.17
  Biodistribution: Stomach: 1.85 ± 0.19
  Biodistribution: U87: 20.43 ± 1.73

## N#C[C@@H]1CCCN1C(=O)CNC(=O)c1ccnc2ccc(OCCCNC(=O)CCc3cn(CCCC[C@H](NC(=O)CN4CCN(CC(=O)O)CCN(CC(=O)O)CC4)C(=O)NCCCOc4ccc5nccc(C(=O)NCC(=O)N6CCC[C@H]6C#N)c5c4)nn3)cc12 [^64Cu-FAPI-74, metal not drawn, reference compound]
[2]
  Biodistribution: Bladder: 3.51 ± 0.30 % ID/g
  Biodistribution: Blood: 2.48 ± 0.87 % ID/g
  Biodistribution: Bone: 7.94 ± 0.78 % ID/g
  Biodistribution: Fat: 0.48 ± 0.43 % ID/g
  Biodistribution: Heart: 1.16 ± 0.28 % ID/g
  Biodistribution: Kidney: 3.83 ± 2.31 % ID/g
  Biodistribution: Lacrimal gland: 5.17 ± 1.51 % ID/g
  Biodistribution: Liver: 1.69 ± 0.83 % ID/g
  Biodistribution: Lung: 2.48 ± 0.64 % ID/g
  Biodistribution: Muscle: 2.05 ± 0.84 % ID/g
  Biodistribution: Pancreas: 2.09 ± 1.12 % ID/g
  Biodistribution: Salivary Gland: 4.42 ± 0.55 % ID/g
  Biodistribution: Small Intestine: 3.80 ± 2.06 % ID/g
  Biodistribution: Spleen: 1.23 ± 0.41 % ID/g
  Biodistribution: Stomach: 1.29 ± 0.45 % ID/g
  Biodistribution: U87: 11.42 ± 1.11 % ID/g

## N#C[C@@H]1CCCN1C(=O)CNC(=O)c1ccnc2ccc(OCCCNC(=O)CCc3cn(CCCC[C@H](NC(=O)CN4CCN(CC(=O)O)CCN(CC(=O)O)CC4)C(=O)NCCCOc4ccc5nccc(C(=O)NCC(=O)N6CCC[C@H]6C#N)c5c4)nn3)cc12 [^64Cu-Sri-06-98, metal not drawn]
[3]
  Biodistribution: Bladder: 5.61 ± 7.96
  Biodistribution: Blood: 0.27 ± 0.08
  Biodistribution: Bone: 0.59 ± 0.65
  Biodistribution: Fat: 0.07 ± 0.02
  Biodistribution: Heart: 0.17 ± 0.01
  Biodistribution: Kidney: 1.57 ± 0.00
  Biodistribution: Lacrimal gland: 0.16 ± 0.02
  Biodistribution: Liver: 0.68 ± 0.16
  Biodistribution: Lung: 0.49 ± 0.01
  Biodistribution: Muscle: 0.09 ± 0.02
  Biodistribution: Pancreas: 0.21 ± 0.04
  Biodistribution: Salivary Glands: 0.34 ± 0.02
  Biodistribution: Small Intestine: 0.54 ± 0.08
  Biodistribution: Spleen: 0.25 ± 0.01
  Biodistribution: Stomach: 0.31 ± 0.02
  Biodistribution: U87: 2.70 ± 1.00
[4]
  Biodistribution: Bladder: 1.63 ± 0.23
  Biodistribution: Blood: 3.49 ± 0.18
  Biodistribution: Bone: 2.91 ± 0.36
  Biodistribution: Fat: 0.47 ± 0.02
  Biodistribution: Heart: 3.70 ± 0.22
  Biodistribution: Kidney: 2.00 ± 0.52
  Biodistribution: Lacrimal gland: 5.07 ± 2.20
  Biodistribution: Liver: 2.80 ± 0.31
  Biodistribution: Lung: 2.62 ± 0.11
  Biodistribution: Muscle: 2.46 ± 0.20
  Biodistribution: Pancreas: 4.59 ± 2.38
  Biodistribution: Salivary Glands: 8.88 ± 1.37
  Biodistribution: Small Intestine: 2.97 ± 0.33
  Biodistribution: Spleen: 1.51 ± 0.14
  Biodistribution: Stomach: 2.09 ± 1.00
  Biodistribution: U87: 7.64 ± 2.12
[5]
  Biodistribution: Bladder: 5.56 ± 1.53
  Biodistribution: Blood: 2.54 ± 0.37
  Biodistribution: Bone: 2.69 ± 0.14
  Biodistribution: Fat: 0.50 ± 0.12
  Biodistribution: Heart: 2.40 ± 0.12
  Biodistribution: Kidney: 1.67 ± 0.03
  Biodistribution: Lacrimal gland: 4.54 ± 0.44
  Biodistribution: Liver: 2.68 ± 0.08
  Biodistribution: Lung: 2.04 ± 0.10
  Biodistribution: Muscle: 2.13 ± 0.14
  Biodistribution: Pancreas: 4.54 ± 0.62
  Biodistribution: Salivary Glands: 5.92 ± 0.57
  Biodistribution: Small Intestine: 2.69 ± 0.42
  Biodistribution: Spleen: 1.14 ± 0.16
  Biodistribution: Stomach: 1.60 ± 0.36
  Biodistribution: U87: 11.15 ± 1.49

## N#CC1CCCN1C(=O)CNC(=O)c1ccnc2ccc(OCCCN3CC4CN(C(=O)CN5CCN(CC(=O)O)CCN(CC(=O)O)CC5)CC4C3)cc12 (stereo not drawn) [^64Cu-Sri-07-86, metal not drawn]
[2]
  Biodistribution: Bladder: 5.55 ± 4.26 % ID/g
  Biodistribution: Blood: 2.54 ± 0.90 % ID/g
  Biodistribution: Bone: 2.84 ± 0.83 % ID/g
  Biodistribution: Fat: 0.31 ± 0.08 % ID/g
  Biodistribution: Heart: 1.04 ± 0.28 % ID/g
  Biodistribution: Kidney: 4.00 ± 1.28 % ID/g
  Biodistribution: Lacrimal gland: 3.53 ± 2.93 % ID/g
  Biodistribution: Liver: 1.97 ± 0.36 % ID/g
  Biodistribution: Lung: 2.02 ± 0.93 % ID/g
  Biodistribution: Muscle: 1.65 ± 1.10 % ID/g
  Biodistribution: Pancreas: 1.89 ± 0.57 % ID/g
  Biodistribution: Salivary Gland: 2.77 ± 0.53 % ID/g
  Biodistribution: Small Intestine: 3.15 ± 1.34 % ID/g
  Biodistribution: Spleen: 1.13 ± 0.42 % ID/g
  Biodistribution: Stomach: 1.26 ± 0.45 % ID/g
  Biodistribution: U87: 6.55 ± 1.41 % ID/g
